# Results published in publication PMC2365111, “Cytotoxicity of Poly(Phenolic)Sulfonates and Their Sodium Salts in L1210 Lymphoid Leukemia Cells” (Metal-Based Drugs, 1998).
# Columns and labels:
# L1210 protein synthesis = assay: Incorporation of labeled precursor into protein; type: cell-based, mouse; conditions: 60 min, N=6
# Source text: (§1) CYTOTOXlCITY OF POLY(PHENOLIC)SULFONATES AND THEIR SODIUM SALTS IN L1210 LYMPHOID LEUKEMIA CELLS Fei Wang, Amy E. Warren, Cheryl R. Barnes and Iris H. Hall* Division of Medicinal Chemistry and Natural Products University of North Carolina Chapel Hill, N.C. […] Because ofthese properties it was surmised that these poly(phenolic)sulfonated compounds may have antineoplastic activity. METHODS Source of Compounds Test compounds were supplied by GeneLabs, Inc. [Redwood City, CA [Table 1]. Radioisotopes were obtained from New England Nuclear [Dupont, Boston, MA]. Substrates and co-factors were purchased om Sigma Chemical Co., [St Louis, MO]. Pentosan sulfate and other antineoplastic standards were obtained from Sigma Chemical Co. Tumor lines were obtained from American Type Culture Collection [Rockville, MD]. 147 Vol. 5, No. 3, 1998 Cytotoxicity ofSodium Poly(Phenolic)Sulfonates in L1210 Lymphoid Leukemia Cells Table 1 Structures of Poly(phenolic)sulfonate Compounds O2R" n Compound R' R" n MW # G1-2041 H OH 8 1489.46 G1-2029 H OH 6 1117.09 G1-2030 H OH 4 744.73 GI-2021 CH3 ONa 8 1777.5 G1-2057 CH3 ONa 4 888.75 GI-2158 CH3 ONa 6 1333.13 GI-2063 OCH3 ONa 8 2001.65 G1-2042 OAc ONa 8 2017.73 Cytotoxicity Poly(phenolic)sulfonates were tested for cytotoxic activity by homogenizing drug in 0.05% Tween 80/H20 to give a mg/ml stock concentration. These solutions were sterilized by passing them through an acrodisc ([…]). The following cell lines were maintained by literature techniques: murine L1210 lymphoid leukemia, P-388 lymphocytic leukemia, rat UMR 106 osteosarcoma, human Tmolt3 acute lymphoblastic T cell leukemia, HUT-8 lymphoma, HeLa-S suspended cervical carcinoma, HeLa solid cervical carcinoma, KB epidermoid nasopharynx, A431 epidermoid carcinoma, colorectal adenocarcinoma SW480, HCT-8 ileocecal adenocarcinoma, lung bronchogenic MB-9812, A549 lung carcinoma, and glioma HS683. Geran et al.'s protocol was used to assess the cytotoxicity of the compounds and standards in each cell line. Cell numbers were determined by the trypan blue exclusion technique. Solid tumor cytotoxicity was determined by Leibovitz et al. 's method utilizing crystal violeeOH and read at 562 nm (Molecular Devices). Values for cytotoxicity were expressed as EDs0 g/ml, i.e. the concentration ofthe compound inhibiting 50% ofcell growth. A value of less than 4 µg/ml was required for significant activity ofgrowth inhibition. Incorporation Studies Incorporation of labeled precursors into 3H-DNA, 3H -RNA and 3H -protein for 10 L1210 cells was obtained. The concentration response for inhibition of DNA, RNA and protein synthesis of the compounds at 25, 50 and 100 l.tM was determined for 60 min incubations. Incorporation of 14C -glycine (53.0 mCi/mmol) into purines was obtained by the method of Cadman et al.[12]. Incorporation of 4C- formate (53.0 mCi/mmol) into pyrimidines was determined by the method of Christopherson et al.[13]. Enzyme Assays Inhibition of various enzyme activities was performed by first preparing the appropriate L1210 cell homogenates or subcellular fractions, then adding the drug to be tested during the enzyme assay. For the concentration response studies, inhibition of enzyme activity was determined at 25, 50 and 100 l.tM of compounds G1-2021, G1-2029, GI-2041 and G1-2063 after 60 min incubations. DNA polymerase Ot activity was determined in cytoplasmic extracts isolated by Eichler et aL's method. The DNA polymerase assay was described by Sedwick et al.[15] using 3H-TTP. Messenger-, ribosomal- and transfer-RNA polymerase enzymes were isolated with different concentrations of ammonium sulfate; individual RNA polymerase activities were determined using 3H -UTP 16,17]. Ribonucleoside reductase activity was measured using 4C -CDP with dithioerythritol. The deoxyribonucleotides 4C -dCDP were separated from the ribonucleotides by TLC on PEI plates. […]
# rRNA polymerase = biological target: T1, rRNA polymerase (Mus musculus, UniProt O35134); assay: Ribosomal-RNA polymerase activity, L1210; type: biochemical; conditions: 60 min, N=6
# T1 construct: Messenger-, ribosomal- and transfer-RNA polymerase enzymes were isolated with different concentrations of ammonium sulfate; endogenous in cells; host or cells: L1210 murine lymphoid leukemia cells, ammonium sulfate fraction
# Source text: as §1
# [1] = biological target: T2, Carbamyl phosphate synthetase (Mus musculus, UniProt B2RQC6); assay: Carbamyl phosphate synthetase activity, L1210; type: biochemical; conditions: 60 min, N=6
# T2 construct: preparing the appropriate L1210 cell homogenates or subcellular fractions; endogenous in cells; host or cells: L1210 murine lymphoid leukemia cells, homogenate or subcellular fraction
# Source text: as §1
# [2] = tested on: murine L1210 lymphoid leukemia; type: cell-based, mouse; conditions: for ED50 converted to: converted from μg/ml
# Source text: as §1
# L1210 DNA = L1210 DNA strand scission, alkaline-sucrose gradient; type: cell-based, mouse; conditions: 100 μM, 24 hr
# Source text: (§2) CYTOTOXlCITY OF POLY(PHENOLIC)SULFONATES AND THEIR SODIUM SALTS IN L1210 LYMPHOID LEUKEMIA CELLS Fei Wang, Amy E. Warren, Cheryl R. Barnes and Iris H. Hall* Division of Medicinal Chemistry and Natural Products University of North Carolina Chapel Hill, N.C. […] Because ofthese properties it was surmised that these poly(phenolic)sulfonated compounds may have antineoplastic activity. METHODS Source of Compounds Test compounds were supplied by GeneLabs, Inc. [Redwood City, CA [Table 1]. Radioisotopes were obtained from New England Nuclear [Dupont, Boston, MA]. Substrates and co-factors were purchased om Sigma Chemical Co., [St Louis, MO]. […] Cell numbers were determined by the trypan blue exclusion technique. Solid tumor cytotoxicity was determined by Leibovitz et al. 's method utilizing crystal violeeOH and read at 562 nm (Molecular Devices). Values for cytotoxicity were expressed as EDs0 g/ml, i.e. the concentration ofthe compound inhibiting 50% ofcell growth. […] Incorporation of 4C- formate (53.0 mCi/mmol) into pyrimidines was determined by the method of Christopherson et al.[13]. […] DNA polymerase Ot activity was determined in cytoplasmic extracts isolated by Eichler et aL's method. […] Messenger-, ribosomal- and transfer-RNA polymerase enzymes were isolated with different concentrations of ammonium sulfate; individual RNA polymerase activities were determined using 3H -UTP 16,17]. […]
# [3] = tested on: HeLa solid cervical carcinoma; assay: Cytotoxicity, solid HeLa growth; type: cell-based, human
# Source text: as §2
# Thymidine kinase = Thymidine kinase activity, L1210; type: biochemical, mouse; conditions: 60 min, N=6
# Source text: as §1
# [4] = tested on: colorectal adenocarcinoma SW480; assay: Cytotoxicity, SW480 growth; type: cell-based, human
# Source text: as §1, with “Geran et al.'s protocol was used to assess the cytotoxicity of the compounds and standards in each cell line.” left out, “A value of less than 4 µg/ml was required for significant activity ofgrowth inhibition. Incorporation Studies Incorporation of labeled precursors into 3H-DNA, 3H -RNA and 3H -protein for 10 L1210 cells was obtained. The concentration response for inhibition of DNA, RNA and protein synthesis of the compounds at 25, 50 and 100 l.tM was determined for 60 min incubations. Incorporation of 14C -glycine (53.0 mCi/mmol) into purines was obtained by the method of Cadman et al.[12].” left out, “Enzyme Assays Inhibition of various enzyme activities was performed by first preparing the appropriate L1210 cell homogenates or subcellular fractions, then adding the drug to be tested during the enzyme assay. For the concentration response studies, inhibition of enzyme activity was determined at 25, 50 and 100 l.tM of compounds G1-2021, G1-2029, GI-2041 and G1-2063 after 60 min incubations.” left out, “The DNA polymerase assay was described by Sedwick et al.[15] using 3H-TTP.” left out, “dithioerythritol.” for “dithioerythritol. The deoxyribonucleotides 4C -dCDP were separated from the ribonucleotides by TLC on PEI plates.”
# [5] = biological target: T3, Aspartate transcarbamylase (Mus musculus, UniProt B2RQC6); assay: Aspartate transcarbamylase activity, L1210; type: biochemical; conditions: 60 min, N=6
# T3 construct: preparing the appropriate L1210 cell homogenates or subcellular fractions; endogenous in cells; host or cells: L1210 murine lymphoid leukemia cells, homogenate or subcellular fraction
# Source text: as §1
# [6] = tested on: HeLa-S suspended cervical carcinoma; assay: Cytotoxicity, HeLa-S3 growth; type: cell-based, human
# Source text: as §2
# [7] = tested on: KB epidermoid nasopharynx; assay: Cytotoxicity, KB growth; type: cell-based, human
# Source text: as §2, with “MO]. Pentosan sulfate and other antineoplastic standards were obtained from Sigma Chemical Co. Tumor lines were obtained from American Type Culture Collection [Rockville, MD].” for “MO].”, “16,17]. Ribonucleoside reductase activity was measured using 4C -CDP with dithioerythritol.” for “16,17].”
# [8] = concentration inhibiting 50% of cell growth
# T2 sequence (B2RQC6 whole entry): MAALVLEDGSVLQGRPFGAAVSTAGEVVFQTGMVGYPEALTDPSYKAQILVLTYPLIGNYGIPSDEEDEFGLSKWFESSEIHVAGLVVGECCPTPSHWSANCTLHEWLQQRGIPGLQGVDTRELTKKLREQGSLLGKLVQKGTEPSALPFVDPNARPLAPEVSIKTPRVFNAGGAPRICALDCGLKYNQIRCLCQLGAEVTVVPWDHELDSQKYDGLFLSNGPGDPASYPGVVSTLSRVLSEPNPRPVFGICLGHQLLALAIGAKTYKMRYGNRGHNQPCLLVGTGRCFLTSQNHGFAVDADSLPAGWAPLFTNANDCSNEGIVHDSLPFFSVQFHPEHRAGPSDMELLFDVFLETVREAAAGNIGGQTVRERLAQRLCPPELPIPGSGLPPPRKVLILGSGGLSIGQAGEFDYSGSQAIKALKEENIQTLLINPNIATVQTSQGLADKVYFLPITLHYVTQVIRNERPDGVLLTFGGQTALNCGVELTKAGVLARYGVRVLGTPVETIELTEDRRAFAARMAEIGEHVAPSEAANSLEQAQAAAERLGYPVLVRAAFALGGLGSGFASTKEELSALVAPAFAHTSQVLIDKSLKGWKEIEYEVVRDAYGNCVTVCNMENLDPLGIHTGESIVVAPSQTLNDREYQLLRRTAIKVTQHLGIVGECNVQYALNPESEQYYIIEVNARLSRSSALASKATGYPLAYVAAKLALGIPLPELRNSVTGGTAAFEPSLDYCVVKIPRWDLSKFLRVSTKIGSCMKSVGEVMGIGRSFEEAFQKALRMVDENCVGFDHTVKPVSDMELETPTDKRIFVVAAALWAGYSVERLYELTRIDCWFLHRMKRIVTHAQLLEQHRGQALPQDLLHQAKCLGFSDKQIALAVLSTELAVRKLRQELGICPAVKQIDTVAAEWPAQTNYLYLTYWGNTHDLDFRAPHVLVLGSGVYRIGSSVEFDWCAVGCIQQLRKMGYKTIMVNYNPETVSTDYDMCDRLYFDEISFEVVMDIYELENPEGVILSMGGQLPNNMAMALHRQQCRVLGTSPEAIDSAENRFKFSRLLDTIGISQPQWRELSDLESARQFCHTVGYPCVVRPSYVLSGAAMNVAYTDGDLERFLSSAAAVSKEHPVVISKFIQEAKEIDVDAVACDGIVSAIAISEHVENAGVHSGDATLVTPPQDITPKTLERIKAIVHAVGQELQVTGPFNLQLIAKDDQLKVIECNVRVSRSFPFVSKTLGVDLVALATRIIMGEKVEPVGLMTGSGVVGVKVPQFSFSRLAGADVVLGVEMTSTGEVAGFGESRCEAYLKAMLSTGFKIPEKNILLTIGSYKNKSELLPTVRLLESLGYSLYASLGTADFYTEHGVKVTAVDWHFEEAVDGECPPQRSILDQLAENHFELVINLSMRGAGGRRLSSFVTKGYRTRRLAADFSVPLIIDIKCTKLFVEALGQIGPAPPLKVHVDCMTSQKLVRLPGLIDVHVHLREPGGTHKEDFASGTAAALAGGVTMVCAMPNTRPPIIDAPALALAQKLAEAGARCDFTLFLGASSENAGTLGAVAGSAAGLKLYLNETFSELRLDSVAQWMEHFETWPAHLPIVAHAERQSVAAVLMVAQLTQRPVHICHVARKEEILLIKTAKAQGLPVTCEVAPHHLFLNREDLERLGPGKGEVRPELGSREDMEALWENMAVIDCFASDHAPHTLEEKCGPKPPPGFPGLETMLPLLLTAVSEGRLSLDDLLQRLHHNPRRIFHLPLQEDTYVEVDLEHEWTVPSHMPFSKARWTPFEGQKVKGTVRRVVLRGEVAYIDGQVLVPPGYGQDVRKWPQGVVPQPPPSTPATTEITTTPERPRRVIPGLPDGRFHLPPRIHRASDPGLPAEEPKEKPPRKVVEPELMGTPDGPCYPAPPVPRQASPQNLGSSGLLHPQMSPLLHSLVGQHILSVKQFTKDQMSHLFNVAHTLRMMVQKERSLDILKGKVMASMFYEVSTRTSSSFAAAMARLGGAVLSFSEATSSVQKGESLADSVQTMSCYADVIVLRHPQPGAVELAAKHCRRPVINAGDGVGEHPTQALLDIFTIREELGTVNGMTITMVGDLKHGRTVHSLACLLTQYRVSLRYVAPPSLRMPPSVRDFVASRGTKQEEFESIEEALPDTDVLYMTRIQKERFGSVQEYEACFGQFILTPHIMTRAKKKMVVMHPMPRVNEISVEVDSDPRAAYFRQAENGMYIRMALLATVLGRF
# T3 sequence (B2RQC6 whole entry): as above
SMILES,Protein synthesis (L1210 protein synthesis; 50 μM),Protein synthesis (L1210 protein synthesis; 100 μM),rRNA polymerase (rRNA polymerase; 25 μM),rRNA polymerase (rRNA polymerase; 50 μM),rRNA polymerase (rRNA polymerase; 100 μM),Carbamyl phosphate synthetase ([1]; 25 μM),Carbamyl phosphate synthetase ([1]; 50 μM),ED50 converted to [2] [nM],"L1210 DNA fragmentation, in words (L1210 DNA)",Thymidine kinase (Thymidine kinase; 25 μM),Thymidine kinase (Thymidine kinase; 50 μM),Aspartate transcarbamylase ([5]; 25 μM),Aspartate transcarbamylase ([5]; 50 μM),Aspartate transcarbamylase ([5]; 100 μM),"cytotoxic activity, in words [2]",also measured
COc1c2cc(S(=O)(=O)[O-])cc1Cc1cc(S(=O)(=O)[O-])cc(c1OC)Cc1cc(S(=O)(=O)[O-])cc(c1OC)Cc1cc(S(=O)(=O)[O-])cc(c1OC)Cc1cc(S(=O)(=O)[O-])cc(c1OC)Cc1cc(S(=O)(=O)[O-])cc(c1OC)Cc1cc(S(=O)(=O)[O-])cc(c1OC)Cc1cc(S(=O)(=O)[O-])cc(c1OC)C2.[Na+].[Na+].[Na+].[Na+].[Na+].[Na+].[Na+].[Na+] [GI-2021],64+4% of Control,59+3% of Control,122+7% of Control,120+5% of Control,123+4% of Control,94+5% of Control,89+5% of Control,777,more evident,112+7% of Control,96+5% of Control,101+6% of Control,100+5% of Control,98+4% of Control,,"Protein synthesis (L1210 protein synthesis; 25 μM): 80+4% of Control; activity, in words [3]: effective; ED50 [3, 8]: 1.97 µg/mL; Thymidine kinase (Thymidine kinase; 100 μM): 76+4% of Control; activity, in words [4]: active; ED50 [4, 8]: less than 2 μg/ml"
O=S(=O)(O)c1cc2c(O)c(c1)Cc1cc(S(=O)(=O)O)cc(c1O)Cc1cc(S(=O)(=O)O)cc(c1O)Cc1cc(S(=O)(=O)O)cc(c1O)Cc1cc(S(=O)(=O)O)cc(c1O)Cc1cc(S(=O)(=O)O)cc(c1O)C2 [GI-2029],80+3% of Control,71+3% of Control,115+6% of Control,102+4% of Control,107+5% of Control,78+5% of Control,,1362,more moderated,105+6% of Control,104+6% of Control,100+5% of Control,100+5% of Control,98+6% of Control,most potent activity,"Carbamyl phosphate synthetase ([1]; 100 μM): 72+3% of Control; growth suppression, in words [6]: best activity"
O=S(=O)(O)c1cc2c(O)c(c1)Cc1cc(S(=O)(=O)O)cc(c1O)Cc1cc(S(=O)(=O)O)cc(c1O)Cc1cc(S(=O)(=O)O)cc(c1O)Cc1cc(S(=O)(=O)O)cc(c1O)Cc1cc(S(=O)(=O)O)cc(c1O)Cc1cc(S(=O)(=O)O)cc(c1O)Cc1cc(S(=O)(=O)O)cc(c1O)C2 [GI-2041],70+3% of Control,70+3% of Control,112+5% of Control,,,142+6% of Control,82+5% of Control,1263,,116+5% of Control,104+5% of Control,106+5% of Control,,94+5% of Control,most potent activity,"activity, in words [7]: active; ED50 [7, 8]: 2.60 µg/mL"
